# Earlier results, collected in patent US10086029B2, “Fermented plant extracts, methods of production and uses” (KEFIPLANT INC., priority 2006, dated 2018).
# System: xanthine oxidase
# Conditions: glycoside versus aglycone, literature study
smiles,measurement,value
C[C@@H]1O[C@@H](OC[C@H]2O[C@@H](Oc3c(-c4ccc(O)c(O)c4)oc4cc(O)cc(O)c4c3=O)[C@H](O)[C@@H](O)[C@@H]2O)[C@H](O)[C@H](O)[C@H]1O [rutine],Activity as inhibitor of xanthine oxidase relative to quercetine,nearly ten times less active than quercetine
